This is an account of results in US5840721A, “Imidazole derivatives as MDR modulators” (Ontogen Corporation, priority 1997, dated 1998).

pEC50: −log10 of the molar value.

As usually defined, the pEC50 is the negative decadic logarithm of the EC50, by convention in mol/L.

Test [1] deals with CEM/VLB1000 cell line. Nature of the test: [3H]VLB accumulation in CEM/VLB1000 cells. Conditions: Homo sapiens, midpoint of minimum and maximum increase in accumulation of 3H-vinblastine (275 nM), 3 hours at 37° C. It counts as cell-based. Here is the method: ^3 H-vinblastine accumulation was also measured in the CEM/VLB1000 cell line. Corning Easy-Wash 96 well plates were pretreated with PBS and 1% BSA for 60 minutes and then removed. CEM/VLB1000 cells were seeded at 2×10^5, 40 μL volume. Plates were incubated at 37° C. for 30-60 minutes prior to use. The reference reversing agent, verapamil, or the compound of the present invention was added to the well followed by addition of media containing ^3 H-vinblastine (final concentration=275nM). Plates were allowed to incubate for 3 hours at 37° C. Cells were harvested onto pretreated Wallace filtermats A (pretreated with 0.1% polyethyleneimine) using a TomTek harvester-96. After filtering, the filtermats were allowed to dry completely. Meltix B scintillant was then added to the filtermats. The filters were then placed in a 90° C. oven for approximately 3-5 minutes and then removed. Scintillant was allowed to solidify on the filtermats. Filtermats were then placed in sample bags and read on a Wallace BetaPlate scintillation counter. The effects of compounds of the present invention in the cytotoxicity potentiation assays and vinblastine (VLB) accumulation assay are given in the Table below:
^2 Values presented are the midpoint (EC50 ) of the minimum and
maximum increase in accumulation of ^3 Hvinblastine caused by the
specfic compound of the present invention.

Test [2] relates to CEM/VLB1000 cell line. As to the kind of experiment: Cytotoxicity potentiation: enhancement of vinblastine cytotoxicity in MDR cell line (alamar blue). It counts as cell-based, human. The settings on record: Homo sapiens, midpoint of minimum and maximum cytotoxicity induced by 3-5 μg/mL vinblastine and compound, 48 hours incubation, alamar blue 24 hours, read-out: Cytotocicity Potentiation (EC50). The method, then:
Multidrug-resistant cell lines are easily obtainable for in vitro determination of drug sensitization by compounds of the present invention. In vitro potentiation of antineoplastic cytotoxicity by the imidazole derivatives of the present invention was measured in both CEM/VLB1000 and SK/VLB1000 cell lines. The multidrug resistant cell lines were obtained from Dr. Victor Ling, Ontario Cancer Institute, Toronto, Canada. The CEM/VLB 1000 cell line was maintained as a suspension in minimum essential medium supplemented with 10% fetal bovine serum in a humidied atmosphere of 95% air and 5% CO2 while the SK/VLB 1000 cell line was maintained as adherent cells using the identical medium conditions as the CEM cells. The CEM/VLB 1000 cells were seeded at a density of 5×10^4 cells/well in a 96 well microtiter plate while the SK/VLB 1000 cell line was seeded at a density of 2,500 cells/well after trypsinization.

Take `COC/C=C/c1ccc(-c2nc(-c3ccc(N(C)C)cc3)c(-c3ccc(N(C)C)cc3)[nH]2)cc1` [Example 74, 2-[4-(3-methoxy-trans-1-propen-1-yl)phenyl]-4,5-bis (4-N,N-dimnethylaminophenyl) imidazole]: the pEC50 is 5.70 in test [1] and 6.89 in test [2]. For `CN(C)c1ccc(-c2nc(-c3ccc(/C=C/COCc4ccccc4)cc3)[nH]c2-c2ccc(N(C)C)cc2)cc1` [Example 77, 2-[4-(3-benzyloxy-trans-1-propen-1-yl)phenyl]-4,5-bis (4-N,N-dimethylaminophenyl) imidazole], in that order: 5.92 and 6.47.

In the case of `CCOC/C=C/c1ccc(-c2nc(-c3ccc(N(C)C)cc3)c(-c3ccc(N(C)C)cc3)[nH]2)cc1` [Example 75, 2-[4-(3-ethoxy-trans-1-propen-1-yl)phenyl]-4,5-bis (4-N,N-dimethylaminophenyl) imidazole], the figures for the pEC50 in test [1] and in test [2] were 5.92 and 7.01, respectively. In the same order, the values of `CN(C)c1ccc(-c2nc(-c3ccc(/C=C/CO)cc3)[nH]c2-c2ccc(N(C)C)cc2)cc1` [Example 113, 2-[4-(3-hydroxy-trans-1-propen-1-yl)phenyl]-4,5-bis (4-N,N-dimethylaminophenyl) imidazole] are 5.41 and 6.39.

`CCN(CC)Cc1ccc(-c2[nH]c(-c3ccc(/C=C/C(=O)OC)cc3)nc2-c2ccc(C)cc2)cc1` [Example 99, 2-[4-trans-(2-methoxycarbonyl-ethenyl)phenyl]-4-(p-tolyl)-5-(4-N,N-diethylaminomethylphenyl) imidazole]: in test [2], the pEC50 was 6.54. Same read-out and setting: in the case of `CCOC/C=C/c1ccc(-c2nc(-c3ccc(OCC)cc3)c(-c3ccc(OCC)cc3)[nH]2)cc1` [Example 103, 2-[4-(3-ethoxy-trans-1-propen-1-yl)phenyl]-4,5-bis (4-diethoxyphenyl) imidazole] it was 6.62; in that of `CCOC/C=C/c1ccc(-c2nc(-c3ccc(N(C)C)cc3)c(-c3ccc(N4CCOCC4)cc3)[nH]2)cc1` [Example 93, 2-[4-(3-ethoxy-trans-1-propen-1-yl)phenyl]-4-(4-N-dimethylaminophenyl)-5-(4-N-morpholinophenyl) imidazole], 6.82. Still for that read-out and setting: in the case of `CCNc1ccc(-c2[nH]c(-c3ccc(/C=C/COCC)cc3)nc2-c2ccc(NC(C)C)cc2)cc1` [Example 120, 2-[4-(3-ethoxy-trans-1-propen-1-yl)phenyl]-4-(4-N-ethylaminophenyl)-5(4-N-isopropylaminophenyl) imidazole] it was 7.28; in that of `CNc1ccc(-c2[nH]c(-c3ccc(/C=C/c4nc5ccccc5o4)cc3)nc2-c2ccc(N(C)C)cc2)cc1` [Example 57, 2-[trans-2-(2-benzoxazolyl)ethenylphenyl]-4-(4-N,N-dimethylaminophenyl)-5-(4-N-methylaminophenyl) imidazole], 6.68. The same measure, in the same setting: in the case of `CCOC/C=C/c1ccc(-c2nc(-c3ccc(NCC(C)C)cc3)c[nH]2)cc1` [Example 124, 2-[4-(3-ethoxy-trans-1-propen-1-yl)phenyl]-4-(4-N-isobutylphenyl) imidazole] it was 6.60; in that of `CCOC/C=C/c1ccc(-c2nc(-c3ccc(N(C)C)cc3)c(-c3ccc(NC)cc3)[nH]2)cc1` [Example 76, 2-[4-(3-ethoxy-trans-1-propen-1-yl)phenyl]-4-(4-N-dimethylaminophenyl)-5-(4-N-methylaminophenyl) imnidazole], 6.96. On to `COCCOC/C=C/c1ccc(-c2nc(-c3ccc(N(C)C)cc3)c(-c3ccc(N(C)C)cc3)[nH]2)cc1` [Example 84, 2-{4-[3-(2-methoxy-ethoxy)-trans-1-propen-1-yl]phenyl}-4,5-bis (4-N,N-dimethylaminophenyl) imidazole], for which the pEC50 in test [2] is 7.05. Still for that read-out and setting: under `CN(C)c1ccc(-c2nc(-c3ccc(/C=C/c4nc5ccccc5o4)cc3)[nH]c2-c2ccc(N(C)C)cc2)cc1` [Example 56, 2-[trans-2-(2-benzoxazolyl)ethenylphenyl]-4,5-bis (4-N,N-dimethylaminophenyl) imidazole] stands 6.26; under `CN(C)c1ccc(-c2nc(-c3ccc(N4CCOCC4)cc3)[nH]c2-c2ccc(N(C)C)cc2)cc1` [Example 97, 2-(4-N-morpholinophenyl)-4,5-bis (4-N,N-dimnethylaminophenyl) imidazole], 6.72. Same read-out and setting: in the case of `CCCCOC/C=C/c1ccc(-c2nc(-c3ccc(N(C)C)cc3)c(-c3ccc(N(C)C)cc3)[nH]2)cc1` [Example 85, 2-[4-(3-butoxy-trans-1-propen-1-yl)phenyl]-4,5-bis (4-N,N-dimethylaminophenyl) imidazole] it was 6.96. On the same count and under the same terms, under `CCOC/C=C/c1ccc(-c2nc(-c3ccc(OC)cc3)c[nH]2)cc1` [Example 109, 2-[4-(3-ethoxy-trans-1-propen-1-yl)phenyl]-4-(4-methoxyphenyl) imidazole] stands 5.73; under `CNc1ccc(-c2nc(-c3ccc(/C=C/C(=O)OC)cc3)[nH]c2-c2ccc(N3CCOCC3)cc2)cc1` [Example 73, 2-(trans-2-methoxycarbonyl-ethenylphenyl)-4-(4-N-methylaminophenyl)5-(4-N-morpholinophenyl) imidazole], 6.47; under `CNc1ccc(-c2[nH]c(-c3ccc(/C=C/C(=O)OC)cc3)nc2-c2ccc(-n3ccnc3)cc2)cc1` [Example 70, 2-(trans-2-methoxycarbonyl-ethenylphenyl)-4-[4-(1-imidazolyl)phenyl]-5(4-N-methylaminophenyl) imidazole], 6.30. With `CN(C)C(=O)/C=C/c1ccc(-c2nc(-c3ccc(N(C)C)cc3)c(-c3ccc(N(C)C)cc3)[nH]2)cc1` [Example 111], the pEC50 in test [1] is 5.77; in test [2], 6.21. Turning to `CN(C)c1ccc(-c2nc(-c3ccc(/C=C/c4nc5ccccc5s4)cc3)[nH]c2-c2ccc(N(C)C)cc2)cc1` [Example 62, 2-[trans-2-(2-benzthiazolyl)ethenylphenyl]-4,5-bis (4-N,N-dimethylaminophenyl) imidazole], the pEC50 in test [2] is 5.99.

For `CCN(CC)Cc1ccc(-c2nc(-c3ccc(/C=C/C(=O)OC)cc3)[nH]c2-c2ccc(CN(CC)CC)cc2)cc1` [Example 100, 2-[4-trans-(2-methoxycarbonyl-ethenyl)phenyl]-4,5-bis (4-N,N-diethylaminomethylphenyl) imidazole], the pEC50 in test [2] is 5.47.
